Reference: publication PMC6600665, “Identification and Characterization of Approved Drugs and Drug-Like Compounds as Covalent Escherichia coli ClpP Inhibitors” (International Journal of Molecular Sciences, 2019)
Peptide text beside a SMILES is read from it.

Assays:
[1] = molecular target: T1, E. coli ClpP (Escherichia coli, UniProt P0A6G7); assay: Fluorescence-based E. coli ClpP proteolytic activity assay (Suc-LY-AMC), primary screen and dose-response; assay type: biochemical; conditions: for inhibition at 200 µM: read-out: E. coli ClpP inhibition [%] in the primary screen, primary screen, 200 µM; for Inhibition (%) at 200 μM E. coli ClpP: 200 μM compound concentration; for IC50: read-out: E. coli ClpP IC50
T1 construct: His-tag; made in house; host or cells: E. coli SG1146a
T1 sequence (P0A6G7 15-207): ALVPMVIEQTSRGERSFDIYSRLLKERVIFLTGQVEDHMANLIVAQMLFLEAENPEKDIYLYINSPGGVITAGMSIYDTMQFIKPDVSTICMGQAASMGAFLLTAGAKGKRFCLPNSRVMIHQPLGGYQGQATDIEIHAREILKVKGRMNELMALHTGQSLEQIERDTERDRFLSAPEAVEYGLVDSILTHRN
Description: Briefly, 25 ng/μL of E. coli ClpP dissolved in a buffer containing 100 mM NaCl, 100 mM 4-(2-hydroxyethyl)-1-piperazineethanesulfonic acid (HEPES) pH 7.5, and 0.05% Brij® 35 were transferred into each well. Test compound addition (final concentration 200 µM) was carried out using an Echo® 550 liquid handling system (Labcyte, Sunnyvale, CA, USA). […] Changes in fluorescence (excitation 350 nm, emission 435 nm) were monitored at 1 min intervals at 30 °C over 1 h using an Infinite M1000 microplate reader (Tecan).
The assay was carried out as described above with increasing concentrations of test compounds. Dose-response experiments were done at least 3 times independently, each in technical triplicates.
Calculation of Z prime (Z’) for HTS assay performance was done according to Zhang et al.. Plates were considered for further analyses if Z’ > 0.6 [26].

[2] = test system: A549 cells; assay: in vitro; assay type: cell-based; conditions: for IC50: 48 h incubation, 1:3 dilutions starting from 200 μM, read-out: Cytotoxicity A549 IC50
Description: (§1) Potential cell toxicity of the tested compounds was evaluated by ATP quantification using the CellTiter-Glo® luminescent cell viability assay (Promega, Madison, WI, USA). […] After incubation, 20 µL of CellTiter-Glo® reagent were added per well and incubated at room temperature in the dark for another 30 min. Luminescence was quantified by an EnVision multi-plate reader (PerkinElmer, Rodgau, Germany).

[3] = test system: HTC-116 cells; assay: in vitro; assay type: cell-based; conditions: for IC50: 48 h incubation, 1:3 dilutions starting from 200 μM, read-out: Cytotoxicity HTC-116 IC50
Description: as §1

[4] = test system: MCF-7 cells; assay: in vitro; assay type: cell-based; conditions: for IC50: 48 h incubation, 1:3 dilutions starting from 200 μM, read-out: Cytotoxicity MCF-7 IC50
Description: as §1

[5] = molecular target: T1, E. coli ClpP; assay: Surface plasmon resonance binding to immobilized ClpP; conditions: 80 µM, injected over 7 min, 30 min dissociation
Description: E. coli ClpP (80 μg/mL) protein was immobilized, using amine coupling (SPR-AS-HCA-03, Bruker Daltonics Inc., Billerica, MA, USA), onto the surface of the sensor chip of a SIERRA SPR-16 instrument (Bruker Daltonics GmbH, Bremen, Germany). ClpP protein was dissolved in acetate at pH 4. The running buffer contained 150 mM NaCl, 10 mM Hepes, 3 mM EDTA, and 0.05% (v/v) Tween-20. The flow rate for protein immobilization was 10 μL/min. Binding experiments were carried out using running buffer with the addition of 0.8% (v/v) of DMSO and 80 µM test substance (flow rate of 20 μL/min for 7 min and up to 30 min of dissociation time). […] SPR data were analyzed using the Analyzer 3 software (Bruker Daltonics GmbH), which includes algorithms for subtracting reference signals and accounting for non-specific interactions between the solvent and the sensor chip surface.

[6] = test system: E. coli BW25-113 (wild type); assay: Growth delay under nitric oxide stress (DPTA NONOate) in M9 medium, wild type; assay type: cell-based; conditions: M9 minimal medium
Description: (§2) Assessment of E. coli growth delay in presence of nitric oxide stress was carried out following our recently published protocol, which is an adaptation of the method reported by Robinson and Brynildsen to a 96-well plate format. Fresh MHB medium was inoculated with isolated colonies of E. coli BW25-113 or E. coli JW0427-1, grown on Luria Agar, and left overnight in a shaking incubator (250 rpm) at 37 °C. On the following day, the overnight culture was used to inoculate fresh M9 medium (supplemented with 10 mM glucose) 1:100, and was grown until OD600 ~0.3. Afterwards, the culture was transferred into 96-well, flat-bottom, sterile clear plates (#167008, Nunc, VWR). Bacterial OD600 was adjusted to 0.1 with M9 medium (supplemented with 10 mM glucose). Test compounds were transferred into the 96-well plates, followed by addition of the bacterial culture. Nitric oxide stress was induced by addition of 2 mM DPTA NONOate ((Z)-1-[N-(3-aminopropyl)-N-(3-ammoniopropyl)amino]diazen-1-ium-1,2-diolate, Cayman Chemical, Ann Arbor, MI, USA), dissolved in NaOH (final concentration 0.14 mM). Absorbance measurements (600 nm) were done with a Multiskan GO or Varioskan LUX plate reader (Thermo Fisher Scientific, Finland) at hourly intervals for 24 h. Between measurements, plates were incubated in a shaking incubator (500 rpm) at 37 °C.

[7] = test system: E. coli JW0427 (ΔclpP); assay: Growth delay under nitric oxide stress (DPTA NONOate) in M9 medium, clpP-deficient strain; assay type: cell-based
Description: as §2

[8] = dose-response, 1:3 dilution starting from 200 μM, substrate Suc-LY-AMC

## O=C(O)C1CCCCC1C(=O)Nc1ccc(S(=O)(=O)NC2CCCCC2)cc1 (stereo not shown) [2-({4-[(cyclohexylamino)sulfonyl]anilino}carbonyl)cyclohexanecarboxylic acid]
[1]; primary screen, 200 µM
  E. coli ClpP inhibition [%] in the primary screen: 72.93%

## O=C(CCC1CCCC1)NCCN1CCOCC1 [3-cyclopentyl-N-[2-(4-morpholinyl)ethyl]propanamide]
[1]; primary screen, 200 µM
  E. coli ClpP inhibition [%] in the primary screen: 84.44%

## CCc1ccc(/C=C2/SC(=S)NC2=O)cc1 [10058-F4]
[1]; primary screen, 200 µM
  E. coli ClpP inhibition [%] in the primary screen: 72.82%

## COC(=O)N[C@H](C(=O)N[C@@H](Cc1ccccc1)[C@@H](O)CN(Cc1ccc(-c2ccccn2)cc1)NC(=O)[C@@H](NC(=O)OC)C(C)(C)C)C(C)(C)C [Atazanavir]
[1]
  inhibition at 200 µM: 85%

## O=C(O)CCNC(=O)c1ccc(/N=N/c2ccc(O)c(C(=O)O)c2)cc1 [Balsalazide]
[1]
  inhibition at 200 µM: 76.5%

## O=C(/C=C/c1ccc(O)cc1)CC(=O)/C=C/c1ccc(O)cc1 [Bisdemethoxycurcumin]
[1]
  inhibition at 200 µM: 76.5%

## N.N.[Cl][Pt][Cl] [Cisplatin, cisplatin]
[1]
  Inhibition (%) at 200 μM E. coli ClpP: 96.5%
[1]; 200 μM, cisplatin was a hit in both screened libraries, second value of the cell
  Inhibition (%) at 200 μM E. coli ClpP, second value: 98.7%
[1]; [8]
  IC50: 31 µM
[1]; primary screen, 200 µM
  E. coli ClpP inhibition [%] in the primary screen: 96.54%
[1]; primary screen, 200 µM, cisplatin present in two libraries (SCREEN-WELL, LOPAC1280), second value
  E. coli ClpP inhibition [%] in the primary screen, second library: 98.67%
[1]; primary screen, 200 µM, listed as cisplatin
  E. coli ClpP inhibition [%] in the primary screen: > 90%
[2]
  IC50: 86.7 µM
[3]
  IC50: 913 µM
[4]
  IC50: 4.52 µM
[5]
  SPR signal (resonance units, RU): high RU values
[6]; WT E. coli, 50 μM compound plus DPTA NONOate
  Growth arrest in presence of DPTA NONOate: ~ 10 h
[6]; WT E. coli, 50 μM compound
  Bacterial growth in absence of NO• stress: comparable to the untreated bacteria
[6]; WT E. coli, 100 μM compound
  Bacterial growth in absence of NO• stress: affected bacterial growth
[7]; clpP-deficient E. coli, DPTA NONOate, compared with cells without compound
  Growth delay in presence of nitric oxide stress: significantly longer growth delay

## NCCCN(CCCN)/[N+]([O-])=N/O [DPTA NONOate, (Z)-1-[N-(3-aminopropyl)-N-(3-ammoniopropyl)amino]diazen-1-ium-1,2-diolate]
[6]; wild-type strain, 2 mM DPTA NONOate, no test compound
  Growth arrest by the NO• donor alone: ~ 3 h
[7]; ΔclpP E. coli, 2 mM DPTA NONOate, no test compound, M9 minimal medium
  Growth arrest by the NO• donor alone: ~ 4 h

## CCOC(=O)[C@@H](N)CCC(=O)N[C@@H](CSCc1ccccc1)C(=O)N[C@@H](C(=O)OCC)c1ccccc1 [Ezatiostat]
[1]; primary screen, 200 µM
  E. coli ClpP inhibition [%] in the primary screen: 88.80%

## O=c1c(O)c(-c2cc(O)c(O)c(O)c2)oc2cc(O)cc(O)c12 [Myricetin]
[1]
  inhibition at 200 µM: 76%

## CC(=O)Oc1ccccc1C(=O)Nc1ncc([N+](=O)[O-])s1 [Nitazoxanide]
[1]
  inhibition at 200 µM: 80%

## CC1=C(/C=C/C(C)=C/C=C/C(C)=C/C(=O)Nc2ccc(O)cc2)C(C)(C)CCC1 [Retinoic acid p-hydroxyanilide]
[1]; primary screen, 200 µM
  E. coli ClpP inhibition [%] in the primary screen: 74.12%

## CO[C@H]1/C=C/O[C@@]2(C)Oc3c(C)c(O)c4c(O)c(c(/C=N/N5CCN(C6CCCC6)CC5)c(O)c4c3C2=O)NC(=O)/C(C)=C\C=C\[C@H](C)[C@H](O)[C@@H](C)[C@@H](O)[C@@H](C)[C@H](OC(C)=O)[C@@H]1C [Rifapentine]
[1]
  inhibition at 200 µM: 71.5%

## C[n+]1ccccc1CC(=O)c1ccc(Br)cc1.[I-] [S 24795]
[1]; primary screen, 200 µM
  E. coli ClpP inhibition [%] in the primary screen: 76.27%

## O=C(O)Cn1c(C(=O)Nc2nc(-c3ccccc3Cl)cs2)cc2ccccc21 [SR 27897 hydrate]
[1]; primary screen, 200 µM
  E. coli ClpP inhibition [%] in the primary screen: 84.71%

## O=C(O)c1cc(/N=N/c2ccc(S(=O)(=O)Nc3ccccn3)cc2)ccc1O [Sulfasalazine]
[1]
  inhibition at 200 µM: 77.3%

## CCN(CC)CCNC(=O)c1c(C)[nH]c(/C=C2\C(=O)Nc3ccc(F)cc32)c1C [Sunitinib Malate]
[1]
  inhibition at 200 µM: 80.7%

## N#CC(C#N)=Cc1ccc(O)c(O)c1 [Tyrphostin 23]
[1]
  inhibition at 200 µM: 79.3%

## N#CC(C#N)=C(N)/C(C#N)=C/c1cc(O)c(O)c(O)c1 [Tyrphostin 51]
[1]
  inhibition at 200 µM: 72.8%

## CC(C)C[C@H](NC(=O)OCc1ccccc1)C(=O)N[C@@H](Cc1ccc(O)cc1)C(=O)CCl [Z-LY-CMK, benzyloxycarbonyl-leucyl-tyrosine chloromethyl ketone] (HELM PEPTIDE1{[O=C(OCc1ccccc1)[*:2]].L.Y.[ClC[*:1]]}$$$$V2.0)
[1]
  Inhibition (%) at 200 μM E. coli ClpP: 98.6%
[1]; [8]
  IC50: 14 µM
[2]
  IC50: 7.15 µM
[2]; A549
  Cytotoxicity A549 Ratio (IC50 cytotoxicity/IC50 ClpP): 0.51
[3]
  IC50: 3.54 µM
[3]; HTC-116
  Cytotoxicity HTC-116 Ratio (IC50 cytotoxicity/IC50 ClpP): 0.25
[4]
  IC50: 0.05 µM
[4]; MCF-7
  Cytotoxicity MCF-7 Ratio (IC50 cytotoxicity/IC50 ClpP): 0
[5]
  Covalent / irreversible binding to ClpP by SPR: irreversibly binding

## Cn1c(=O)c2c(ncn2C)n(C)c1=O [caffeine]
[5]
  Covalent / irreversible binding to ClpP by SPR: did not show any interaction

## N.N.O=C([O-])C1(C(=O)[O-])CCC1.[Pt+2] [carboplatin]
[1]; primary screen, 200 µM
  E. coli ClpP inhibition [%] in the primary screen: 5.4%

## CO[C@@]1(NC(=O)C2SC(=C(C(N)=O)C(=O)O)S2)C(=O)N2C(C(=O)O)=C(CSc3nnnn3C)CS[C@@H]21 (stereo partly shown) [cefotetan]
[1]
  inhibition at 200 µM: -4.6 to 19.3%

## CO/N=C(\C(=O)N[C@@H]1C(=O)N2C(C(=O)O)=C(CSc3nc(=O)c(=O)[nH]n3C)CS[C@H]12)c1csc(N)n1 [ceftriaxone]
[1]
  inhibition at 200 µM: -4.6 to 19.3%

## N=C(N)N/N=C/c1c(Cl)cccc1Cl [guanabenz]
[1]; [8]
  E. coli ClpP IC50: did not confirm as ClpP inhibitor
[1]; primary screen, 200 µM
  E. coli ClpP inhibition [%] in the primary screen: > 90%
[1]
  inhibition at 200 µM: 100%
